pEC50, pIC50: −log10 of the molar value. Where two headings read alike, the source gives them in different places.
Tests used:
[1] = tested on: E. coli
[2] = tested on: protein synthesis; conditions: read-out: IC50 protein synthesis inhibition; cited from earlier work
[3] = tested on: HUH7-ZikaPRVABC59; assay: microbe, parasite or virus in culture; format: cell-based; conditions: Zika virus
[4] = tested on: HCV Replicon; assay: microbe, parasite or virus in culture; format: cell-based; conditions: Hepatitis C virus
[5] = in vitro; conditions: human
[6] = in vitro
[7] = tested on: CEM-SS/HIVRF; format: cell-based, HIV1
[8] = tested on: CEM-SS
[9] = in vitro; conditions: human; remark: listed apart in the source

PAP1
increased toxicity to E. coli compared to PAPS1 [1]: > 10 fold | pIC50 [2]: 9.54

CC(C)OC(=O)[C@H](C)N[P@](=O)(OC[C@H]1O[C@@H](n2ccc(=O)[nH]c2=O)[C@](C)(F)[C@@H]1O)Oc1ccccc1 [Sofosbuvir]
pEC50 [3]: 5.68 | pEC50 [4]: 7.30 | CC50 [5]: > 10000 nM | CC50 [6]: > 1000 nM

Cc1cn([C@H]2C[C@H](N=[N+]=[N-])[C@@H](CO)O2)c(=O)[nH]c1=O [AZT]
pEC50 [7]: 9.10 | CC50 [8]: > 1000 nM

Nc1ccn([C@@H]2CS[C@H](CO)O2)c(=O)n1 [3TC, Lamivudine]
CC50 [9]: > 10000 nM

From patent US20200392192A1 (priority 2018, published 2020)
